Laboratory results reported in patent US20200031866A1, “PEPTIDE INHIBITORS OF SODIUM CHANNELS” (SPYRYX BIOSCIENCES, INC., priority 2016, published 2020).
Square brackets hold non-standard residues; d marks the D form. Peptide text beside a SMILES is read from it.

Molecular target: T1, alpha-ENaC (Homo sapiens, UniProt P37088+P51168+P51170)
T1 construct: expressed in transfected cells; host or cells: HEK293T
T1 sequence (P37088 1-669): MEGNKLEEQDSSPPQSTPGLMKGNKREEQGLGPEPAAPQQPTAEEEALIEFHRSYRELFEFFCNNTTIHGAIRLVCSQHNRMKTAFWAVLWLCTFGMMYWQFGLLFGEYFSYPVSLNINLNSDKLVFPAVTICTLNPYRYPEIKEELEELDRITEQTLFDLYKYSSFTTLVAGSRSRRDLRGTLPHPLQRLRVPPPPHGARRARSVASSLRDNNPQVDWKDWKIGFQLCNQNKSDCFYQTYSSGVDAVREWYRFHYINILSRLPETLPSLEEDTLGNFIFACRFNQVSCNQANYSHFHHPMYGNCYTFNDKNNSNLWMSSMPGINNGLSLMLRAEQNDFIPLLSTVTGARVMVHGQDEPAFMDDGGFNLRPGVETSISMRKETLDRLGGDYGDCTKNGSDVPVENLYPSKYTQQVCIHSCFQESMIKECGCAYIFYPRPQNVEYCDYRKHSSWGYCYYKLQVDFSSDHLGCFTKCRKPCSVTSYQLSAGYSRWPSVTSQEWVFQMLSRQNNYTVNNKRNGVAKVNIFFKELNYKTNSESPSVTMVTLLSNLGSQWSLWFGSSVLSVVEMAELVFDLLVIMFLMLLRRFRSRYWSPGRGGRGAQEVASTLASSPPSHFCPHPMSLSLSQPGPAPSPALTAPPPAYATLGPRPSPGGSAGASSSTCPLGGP
T1 sequence (P51168 1-640): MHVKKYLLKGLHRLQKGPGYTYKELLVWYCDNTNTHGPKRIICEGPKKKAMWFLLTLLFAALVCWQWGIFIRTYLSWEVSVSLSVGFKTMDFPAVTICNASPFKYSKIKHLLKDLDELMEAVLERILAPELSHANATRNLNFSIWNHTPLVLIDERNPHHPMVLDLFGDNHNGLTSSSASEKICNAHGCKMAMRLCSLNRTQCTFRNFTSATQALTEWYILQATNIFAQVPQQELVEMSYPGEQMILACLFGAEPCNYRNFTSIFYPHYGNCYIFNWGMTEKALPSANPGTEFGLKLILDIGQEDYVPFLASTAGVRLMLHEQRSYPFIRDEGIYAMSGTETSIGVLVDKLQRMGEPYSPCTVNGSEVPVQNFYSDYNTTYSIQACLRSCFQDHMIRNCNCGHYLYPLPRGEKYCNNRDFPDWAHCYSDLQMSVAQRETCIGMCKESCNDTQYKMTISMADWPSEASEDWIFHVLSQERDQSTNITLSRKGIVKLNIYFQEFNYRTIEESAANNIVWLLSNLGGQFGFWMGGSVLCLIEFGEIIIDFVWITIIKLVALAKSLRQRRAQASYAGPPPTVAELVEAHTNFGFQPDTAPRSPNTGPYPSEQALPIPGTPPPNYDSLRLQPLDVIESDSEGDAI
T1 sequence (P51170 1-649): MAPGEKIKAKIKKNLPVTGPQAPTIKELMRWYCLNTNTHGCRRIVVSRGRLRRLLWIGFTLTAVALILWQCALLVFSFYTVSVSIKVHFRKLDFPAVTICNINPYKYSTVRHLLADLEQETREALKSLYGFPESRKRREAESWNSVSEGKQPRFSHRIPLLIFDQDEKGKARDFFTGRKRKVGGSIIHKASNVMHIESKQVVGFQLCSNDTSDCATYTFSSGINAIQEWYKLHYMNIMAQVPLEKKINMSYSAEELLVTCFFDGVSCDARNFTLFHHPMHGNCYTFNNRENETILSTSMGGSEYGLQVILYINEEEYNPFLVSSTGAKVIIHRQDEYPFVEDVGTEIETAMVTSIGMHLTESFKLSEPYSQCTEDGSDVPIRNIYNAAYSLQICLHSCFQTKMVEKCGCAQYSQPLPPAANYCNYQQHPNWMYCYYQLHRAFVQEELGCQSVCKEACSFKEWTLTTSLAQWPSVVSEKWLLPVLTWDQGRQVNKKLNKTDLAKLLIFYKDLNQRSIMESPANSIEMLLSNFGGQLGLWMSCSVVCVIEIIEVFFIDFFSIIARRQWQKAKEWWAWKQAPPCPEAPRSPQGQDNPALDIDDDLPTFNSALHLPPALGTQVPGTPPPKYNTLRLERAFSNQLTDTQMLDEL
Assay: Internalization of alpha-ENaC in HEK293T cells, GFP-tagged alpha-ENaC co-expressed with beta and gamma ENaC
Assay type: cell-based
Settings: beta-ENaC co-expressed, FIGS. 5A-5U
Description: HEK293T cells were transfected with gfp-αENaC where gfp was fused at the N-terminus of ENaC and unlabeled βENaC and γENaC using lipofectamine in 384 well plates as per the manufacturer's instructions and as published previously (see, e.g., Hobbs et al. Am J Physiol Lung Cell Mol Physiol. 2013 December; 305(12):L990-L1001. doi: 10.1152/ajplung.00103.2013. Epub 2013 October; Garland et al. Proc Natl Acad Sci USA. 2013 Oct. 1; 110(40):15973-8. doi: 10.1073/pnas.1311999110. Epub 2013 Sep. 16.; Tan et al. J Physiol. 2014 Dec. 1; 592(Pt 23):5251-68). Twenty-four hours later, peptide or vehicle control were added at t=0 and fluorescence was read using a Tecan M1000 plate reader 3 h later. Fluorescence was read at 488 nm (excitation)/510 nm (emission).

Question: With CC[C@H](C)[C@H](NC(=O)[C@@H]1CCCN1C(=O)[C@H](CC(C)C)NC(=O)[C@@H](C)NC(=O)[C@@H](C)N)C(=O)N1CCC[C@H]1C(=O)N[C@@H](CC(C)C)C(=O)N[C@@H](CC(=O)O)C(=O)N[C@@H](CCC(N)=O)C(=O)N[C@H](C(=O)N[C@H](C)C(=O)N[C@H](C)C(N)=O)[C@@H](C)O [SEQ ID NO:128, aaLPIPLDQTaa] (H-[dA][dA]LPIPLDQT[dA][dA]-NH2) as the compound, how does the “reduction of alpha-ENaC / functional receptor on the cell surface” value read?
Answer: The value was “effective in reducing alpha-ENaC”.
